Here are results for six molecules from patent US10391066B2, “Compositions and methods for the treatment of Parkinson's disease” (Texas Tech University System, priority 2012, dated 2019).

The target of experiment [1] is rPP2A (Homo sapiens, UniProt P67775). Briefly: recombinant PP2A (rPP2A) activity with FTY720 compounds. Type of experiment: biochemical. To be noted: versus rPP2A alone; for effect on rPP2A activity: across tested concentrations.
In experiment [2] the target is T1, PP2A (Homo sapiens, UniProt P67775). As to the kind of experiment: PP2A activity in response to ceramides and FTY720 compounds (FIG. 8). Type of experiment: biochemical. The conditions noted are these: for PP2A activity in response to compounds: FIG. 8B, C2 ceramide as internal control; for PP2A activity in response to Ceramides: FIG. 8A.
Experiment [3] has as its system PP2A in mouse adrenal gland. As to the kind of experiment: PP2A activity in mouse adrenal gland after single dosing (FIG. 9B, 9D, 9F). Type of experiment: in vivo. To be noted: for effect on PP2A in mouse adrenal gland, IV delivery: single dose (FIG. 9D, 9F).
The test system of experiment [4] is S1P receptors. To be noted: with the exception of S1P2; cited from earlier work.
In experiment [5] the test system is PP2A. As to the kind of experiment: PP2A activity, cellular assay (FIG. 4B). It counts as cell-based.
In experiment [6] the target is T1, PP2A. As to the kind of experiment: PP2A activity, cell free assay (FIG. 4A). It counts as biochemical.
The test system of experiment [7] is BDNF expression in neurons. As to the kind of experiment: BDNF trophic factor expression in neurons (FIG. 6). Type of experiment: cell-based.
The test system of experiment [8] is control and mutant A53T Syn PD mice. As to the kind of experiment: Anxiety levels in control and mutant A53T Syn PD mice (FIG. 7B). Type of experiment: in vivo, mouse.
Experiment [9] shares this test system. Briefly: Grip strength in control and mutant A53T Syn PD mice (FIG. 7A). It counts as in vivo, mouse. To be noted: 5 month old mice, FTY720 twice a week for 14 weeks versus vehicle.
For experiment [10], the system named is C57/B16 Mice mouse model of Parkinson's disease. Briefly: Paraquat mouse model of Parkinson's disease, brain immunohistochemistry (FIG. 5). Type of experiment: in vivo.

Each structure is given as a SMILES string.

Sequence of rPP2A (P67775 whole entry): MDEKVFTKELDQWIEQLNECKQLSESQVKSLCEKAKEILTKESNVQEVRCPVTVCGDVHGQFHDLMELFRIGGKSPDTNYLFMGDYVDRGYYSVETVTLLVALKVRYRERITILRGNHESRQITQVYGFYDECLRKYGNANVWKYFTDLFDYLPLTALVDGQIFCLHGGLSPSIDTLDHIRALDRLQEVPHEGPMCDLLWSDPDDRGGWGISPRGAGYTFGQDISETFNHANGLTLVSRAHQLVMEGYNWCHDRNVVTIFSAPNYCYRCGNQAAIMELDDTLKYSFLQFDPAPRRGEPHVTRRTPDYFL
T1 sequence (P67775 whole entry): as above

With `CCCCCCCCc1ccc(CCC(CO)(CO)NC(C)=O)cc1` [FTY720-C2, N-(1-hydroxy-2-(hydroxymethyl)-4-(4-octylphenyl)butan-2-yl)ethanamide], the “effect on rPP2A activity” value in experiment [1] is “biggest effect”. Besides, the “PP2A activity in response to compounds” value in experiment [2] is given as “significantly stimulate PP2A activity”. Further, the “effect on PP2A in mouse adrenal gland, IV delivery” value in [3] is recorded as “stimulatory effects”. The “effect on PP2A in mouse adrenal gland, oral delivery” value in [3] (gavage, single dose (FIG. 9B)) is “stimulatory effects”.

Turning to `CCCCCCCCCCCCC/C=C/[C@@H](O)[C@H](CO)NC(C)=O` [C2 ceramide], in [2], the “PP2A activity in response to Ceramides” value is “able to stimulate PP2A activity” and the “PP2A activity in response to compounds” value is listed as “significantly stimulate PP2A activity”.

With `CCCCCCCCc1ccc(CCC(CO)(CO)NC(=O)CC[P+](c2ccccc2)(c2ccccc2)c2ccccc2)cc1` [FTY720-Mitoxy, (3-(1-hydroxy-2-(hydroxymethyl)-4-(4-octylphenyl)butan-2-ylamino)-3-oxopropyl) triphenyl phosphonium bromide], in experiment [1], the “effect on rPP2A activity at 10 uM” value was “significant inhibitory effect” and the “effect on rPP2A activity” value is “moderate effect”. Moreover, the “PP2A activity in response to compounds” value in [2] is “significantly stimulate PP2A activity”. Besides, the “effect on PP2A in mouse adrenal gland, IV delivery” value in [3] was “stimulatory effects”.

On to `CCCCCCCCc1ccc(CCC(N)(CO)COP(=O)(O)O)cc1` (stereo not shown) [FTY720-P, 2-amino-2-[2-(4-octylphenyl)ethyl]propane-1,3-diol phosphate], for which, in [4], the “agonism of S1P receptors” value was “potent agonists of S1P receptors with the exception of S1P2”.

Take `CCCCCCCCc1ccc(CCC(N)(CO)CO)cc1` [FTY720, 2-amino-2-[2-(4-octylphenyl)ethyl]-1,3-propanediol]: in experiment [1], the “effect on rPP2A activity at 10 uM” value was “not significantly greater than rPP2A alone” and the “effect on rPP2A activity” value is on record as “increases rPP2A activity more at lower concentrations than at higher concentrations”. Besides, the “PP2A activity in response to compounds” value in experiment [2] is reported as “significantly stimulate PP2A activity”. Besides, the “PP2A activity, cellular” value in experiment [5] is given as “stimulates PP2A activity”. Besides, the “PP2A activity, cell free” value in [6] is given as “stimulates PP2A activity”. The “BDNF expression at the message level” value in experiment [7] (neurons (FIG. 6B)) is on record as “increased BDNF expression at the message level”. Moreover, the “BDNF at the protein level” value in [7] (neurons treated with FTY720, blot (FIG. 6A)) is recorded as “increased BDNF at the protein level”. Moreover, in experiment [8], the anxiety levels result was “reduces anxiety levels”. Besides, in experiment [9], the mouse grip strength entry is “improves mouse grip strength”. Moreover, the Paraquat toxicity entry in experiment [10] (C57/B16 mice, FTY720 given before paraquat (PQ)) is listed as “blocks Paraquat Toxicity”. For the same molecule, the “paraquat-stimulated increase in Syn in dopamine neurons” value in experiment [10] (PQ given after FTY720, immunohistochemistry, TH-labelled neurons) is given as “blocks the increase in Syn”. Also, the “neuroinflammation as measured by microglial Ibal staining” value in experiment [10] (adjacent tissue section) is “reduces neuroinflammation”. The “agonism of S1P receptors” value in [4] is on record as “potent agonists of S1P receptors with the exception of S1P2”.

Consider `CCCCCCCCCCCCCC=CC(O)C(CO)NC(=O)CCCCC` (stereo not shown) [Ceramide C6], for which the “PP2A activity in response to Ceramides” value in experiment [2] was “able to stimulate PP2A activity”.
